These results are taken from patent US12448373B2, “Azetidinyl-acetamides as CXCR7 inhibitors” (CHEMOCENTRYX, INC., priority 2021, dated 2025).

Each structure is given as a SMILES string. A value given as a limit tells only on which side of the number the result lay.

T1 sequence (P25106 whole entry): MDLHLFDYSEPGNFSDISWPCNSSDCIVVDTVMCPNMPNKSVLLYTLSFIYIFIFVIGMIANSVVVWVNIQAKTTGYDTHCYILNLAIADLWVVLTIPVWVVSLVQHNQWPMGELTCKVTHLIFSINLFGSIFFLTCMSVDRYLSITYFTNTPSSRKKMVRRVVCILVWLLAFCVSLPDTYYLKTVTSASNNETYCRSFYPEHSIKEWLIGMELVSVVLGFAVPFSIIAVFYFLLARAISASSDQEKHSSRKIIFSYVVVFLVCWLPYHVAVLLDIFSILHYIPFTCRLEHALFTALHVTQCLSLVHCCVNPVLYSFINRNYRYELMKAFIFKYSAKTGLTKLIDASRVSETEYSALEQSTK

This test addresses T1, CXCR7 (Homo sapiens, UniProt P25106).
T1 construct: expressed in transfected cells; host or cells: CHO cells (CHO-CXCR7), transgenes maintained with Hygromycin B and G418
Put plainly: CXCR7 β-arrestin recruitment assay in CHO-CXCR7 cells (ProLink/EA β-galactosidase complementation), induced by human SDF-1a. It is filed as cell-based. As to conditions: assay buffer, SDF-1a at EC50 concentration. Put shortly:
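CHO cells co-expressing ProLink-tagged CXCR7 and β-arrestin-EA were pre-plated overnight, then given compound and human SDF-1α at its same-day EC50. After 1.5 h at 37 °C, complemented β-galactosidase was read from 0.4 mM 3-carboxyumbelliferyl β-D-galactopyranoside (30 min, 37 °C; ex 360/em 465 nm). IC50 by 3-parameter fit.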
Consider `CC(C)(NC(=O)CC1(NC(=O)c2cc(-c3ccc(F)cc3F)on2)CN([C@H]2CC[C@](C)(O)CC2)C1)c1cnccn1` [Example 1.158], for which the IC50 was in the range of 5 to 100 nM.
Compound `CC(C)(NC(=O)CC1(NC(=O)c2cc(-c3ccc(F)cc3F)on2)CN([C@H]2CC[C@@](C)(O)CC2)C1)c1cccc(F)c1` [Example 1.290] had an IC50 of less than 5 nM.
Then `CC(C)(NC(=O)CC1(NC(=O)c2cc(-c3ccc(F)cc3F)on2)CN([C@H]2CC[C@](C)(O)CC2)C1)c1ccc(F)cc1Cl` [Example 1.253], with 5 to 100 nM; and `Cc1ccc(C)c(C(C)(C)NC(=O)CC2(NC(=O)c3nnc(-c4ccc(F)cc4F)s3)CN([C@H]3CC[C@](C)(O)CC3)C2)n1` [Example 1.011], with less than 5 nM; and `Cc1cc(C)nc(C(C)(C)NC(=O)CC2(NC(=O)c3cc(-c4ccc(F)cc4F)on3)CN(CC3(C)COC3)C2)n1` [Example 1.131], with 1000 to 20000 nM.
`CC(C)(NC(=O)CC1(NC(=O)c2cc(-c3ccc(F)cc3F)on2)CN([C@H]2CC[C@](C)(O)CC2)C1)c1ccccc1` [Example 1.268] registered a 50% inhibitory concentration (IC50) of less than 5 nM.
The compound `Cn1ccc2c(C(C)(C)NC(=O)CC3(NC(=O)c4cc(-c5ccc(F)cc5F)on4)CN([C@H]4CC[C@](C)(O)CC4)C3)cccc21` [Example 1.126] registered an IC50 of 5 to 100 nM.
The compound `CC(C)(NC(=O)CC1(NC(=O)c2cc(-c3ccc(F)cc3F)on2)CN([C@H]2CC[C@](C)(O)CC2)C1)c1cccc2[nH]ncc12` [Example 1.087] showed a half-maximal inhibitory concentration (IC50) of 1000 to 20000 nM.
Under `C[C@]1(O)CC[C@@H](N2CC(CC(=O)NCc3ccccc3)(NC(=O)c3cc(-c4ccc(F)cc4F)on3)C2)CC1` [Example 1.127] stands 1000 to 20000 nM; under `Cc1cccc(C(C)(C)NC(=O)CC2(NC(=O)c3cc(-c4ccc(F)cc4F)on3)CN(C3CCC4(CC3)COC4)C2)n1` [Example 1.226], 5 to 100 nM; under `CC(C)(CO)NC(=O)CC1(NC(=O)c2cc(-c3ccc(F)cc3F)on2)CN(C2CCCCC2)C1` [Example 1.309], 100 to 1000 nM.
In turn, `Cc1ccc(F)c(C(C)(C)NC(=O)CC2(NC(=O)c3nnc(-c4ccc(F)cc4F)s3)CN([C@H]3CC[C@](C)(O)CC3)C2)n1` [Example 1.005] showed a concentration for half-maximal inhibition (IC50) of less than 5 nM.
Under `Cc1cc(C(C)(C)NC(=O)CC2(NC(=O)c3cc(-c4ccc(F)cc4F)on3)CN(CC3(C)COC3)C2)ccn1` [Example 1.151] stands 5 to 100 nM; under `CC(C)(NC(=O)CC1(NC(=O)c2nnc(-c3ccc(F)cc3F)s2)CN([C@H]2CC[C@](C)(O)CC2)C1)c1cccc(C#N)c1` [Example 1.025], 5 to 100 nM; under `CCc1cc(C(C)(C)NC(=O)CC2(NC(=O)c3cc(-c4ccc(F)cc4F)on3)CN([C@H]3CC[C@](C)(O)CC3)C2)ccn1` [Example 1.149], 5 to 100 nM.
The compound `Cc1cccc(C(C)(C)NC(=O)CC2(NC(=O)c3cc(-c4ccc(F)cc4F)on3)CN([C@H]3CC[C@](C)(O)CC3)C2)c1` [Example 1.237] yielded an IC50 of less than 5 nM.
Compound `COc1ccnc(C(C)(C)NC(=O)CC2(NC(=O)c3cc(-c4ccc(F)cc4F)on3)CN([C@H]3CC[C@](C)(O)CC3)C2)c1` [Example 1.201] registered an IC50 of less than 5 nM.
With `CC(C)(NC(=O)CC1(NC(=O)c2cc(-c3ccc(F)cc3F)on2)CN(C2CCC(F)(F)CC2)C1)c1ccccn1` [Example 1.319], the concentration for half-maximal inhibition (IC50) lay within 5 to 100 nM.
Under `CC(C)(NC(=O)CC1(NC(=O)c2cc(-c3ccc(F)cc3F)on2)CN([C@H]2CC[C@@](C)(O)CC2)C1)c1cccc(C(F)(F)F)n1` [Example 1.155] stands less than 5 nM.
`CC1(CN2CC(CC(=O)NC(C)(C)c3ccccn3)(NC(=O)c3cc(-c4ccc(F)cc4F)on3)C2)CCC1` [Example 1.002] yielded an IC50 of less than 5 nM.
Under `Cc1cc(C)nc(C(C)(C)NC(=O)CC2(NC(=O)c3nnc(-c4ccc(F)cc4F)s3)CN(C3CCCCC3)C2)n1` [Example 1.070] stands less than 5 nM.
Turning to `COc1ccc(F)c(C(C)(C)NC(=O)CC2(NC(=O)c3cc(-c4ccc(F)cc4F)on3)CN([C@H]3CC[C@](C)(O)CC3)C2)c1` [Example 1.206], the IC50 is 5 to 100 nM.

The IC50 is the concentration at which inhibition is half-maximal. A lower IC50 goes with inhibition by little substance.
